Holding throughout (experiment): kinase binding screen (kinase-tagged T7 phage, qPCR), % Ctrl
On the technique in general: Real-time PCR tracks product formation cycle by cycle.

One assay deals with MKNK2 (Homo sapiens, UniProt Q9HBH9). An outline of the steps: (§1)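 Competition binding: kinase-tagged T7 phage (grown in BL21-derived E. coli, lysed at 32° C) incubated with immobilized ligand on biotin-blocked beads plus test compound; bound kinase in eluates quantified by qPCR. Compounds tested at a single set concentration, added from 40× DMSO stocks.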
In the next assay the target is T1, PIK3C2G (Homo sapiens, UniProt O75747).
T1 sequence (O75747 1-1486): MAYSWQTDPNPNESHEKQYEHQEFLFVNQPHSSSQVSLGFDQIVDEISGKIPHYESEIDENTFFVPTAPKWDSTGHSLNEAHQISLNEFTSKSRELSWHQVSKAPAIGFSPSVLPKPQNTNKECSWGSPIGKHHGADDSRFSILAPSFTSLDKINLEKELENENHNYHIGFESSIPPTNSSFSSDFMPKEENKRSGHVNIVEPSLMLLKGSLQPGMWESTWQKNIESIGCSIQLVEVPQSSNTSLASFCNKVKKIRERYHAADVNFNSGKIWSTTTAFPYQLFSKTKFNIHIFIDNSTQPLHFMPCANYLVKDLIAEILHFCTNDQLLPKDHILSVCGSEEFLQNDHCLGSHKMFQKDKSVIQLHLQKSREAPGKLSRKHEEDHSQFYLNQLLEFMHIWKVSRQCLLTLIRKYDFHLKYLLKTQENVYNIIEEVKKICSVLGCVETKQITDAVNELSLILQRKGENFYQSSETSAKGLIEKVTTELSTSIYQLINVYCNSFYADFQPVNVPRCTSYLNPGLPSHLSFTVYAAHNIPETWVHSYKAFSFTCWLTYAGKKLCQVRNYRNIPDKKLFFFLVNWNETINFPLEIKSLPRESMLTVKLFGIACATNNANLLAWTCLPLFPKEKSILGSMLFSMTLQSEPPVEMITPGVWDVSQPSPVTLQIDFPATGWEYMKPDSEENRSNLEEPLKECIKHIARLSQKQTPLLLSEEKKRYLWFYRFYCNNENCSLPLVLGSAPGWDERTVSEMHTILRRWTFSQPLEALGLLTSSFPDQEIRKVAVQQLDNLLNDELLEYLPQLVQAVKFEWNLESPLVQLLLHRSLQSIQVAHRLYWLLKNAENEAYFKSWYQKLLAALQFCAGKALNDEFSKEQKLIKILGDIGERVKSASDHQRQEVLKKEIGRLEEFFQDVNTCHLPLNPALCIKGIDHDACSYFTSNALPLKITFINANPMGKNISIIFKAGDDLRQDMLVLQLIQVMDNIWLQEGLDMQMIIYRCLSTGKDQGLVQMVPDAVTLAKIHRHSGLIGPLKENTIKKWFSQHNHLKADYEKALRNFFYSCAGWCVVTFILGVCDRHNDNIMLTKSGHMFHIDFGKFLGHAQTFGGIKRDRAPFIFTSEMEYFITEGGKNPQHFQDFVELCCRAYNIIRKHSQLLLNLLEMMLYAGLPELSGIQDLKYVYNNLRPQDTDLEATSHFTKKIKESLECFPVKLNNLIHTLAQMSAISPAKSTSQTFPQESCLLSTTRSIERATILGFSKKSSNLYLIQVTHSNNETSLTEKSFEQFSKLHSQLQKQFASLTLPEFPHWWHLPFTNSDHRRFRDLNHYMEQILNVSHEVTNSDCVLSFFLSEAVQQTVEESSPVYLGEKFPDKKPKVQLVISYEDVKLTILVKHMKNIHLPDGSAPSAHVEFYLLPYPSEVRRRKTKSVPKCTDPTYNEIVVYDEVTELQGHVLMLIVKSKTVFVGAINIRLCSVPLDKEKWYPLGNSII
An outline of the steps: as §1

Another assay concerns the target T2, ZAP70 (Homo sapiens, UniProt P43403).
T2 sequence (P43403 1-619): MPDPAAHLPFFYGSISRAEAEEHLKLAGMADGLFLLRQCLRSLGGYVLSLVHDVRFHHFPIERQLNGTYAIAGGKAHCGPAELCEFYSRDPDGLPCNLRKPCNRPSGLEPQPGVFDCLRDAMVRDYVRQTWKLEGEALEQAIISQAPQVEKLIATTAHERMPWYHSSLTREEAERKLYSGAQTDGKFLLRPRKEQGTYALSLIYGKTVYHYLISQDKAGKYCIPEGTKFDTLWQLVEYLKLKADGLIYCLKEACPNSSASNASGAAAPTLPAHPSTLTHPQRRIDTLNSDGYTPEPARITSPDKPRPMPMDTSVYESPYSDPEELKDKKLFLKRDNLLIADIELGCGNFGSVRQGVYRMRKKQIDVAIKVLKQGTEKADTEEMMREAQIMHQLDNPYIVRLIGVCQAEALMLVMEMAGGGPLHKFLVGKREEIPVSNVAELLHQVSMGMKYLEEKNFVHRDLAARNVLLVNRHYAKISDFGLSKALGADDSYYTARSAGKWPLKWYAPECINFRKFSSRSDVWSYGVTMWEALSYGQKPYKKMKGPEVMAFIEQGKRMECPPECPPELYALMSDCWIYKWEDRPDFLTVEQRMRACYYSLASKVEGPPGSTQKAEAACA
An outline of the steps: as §1

Sequence of MKNK2 (Q9HBH9 whole entry, species assumed): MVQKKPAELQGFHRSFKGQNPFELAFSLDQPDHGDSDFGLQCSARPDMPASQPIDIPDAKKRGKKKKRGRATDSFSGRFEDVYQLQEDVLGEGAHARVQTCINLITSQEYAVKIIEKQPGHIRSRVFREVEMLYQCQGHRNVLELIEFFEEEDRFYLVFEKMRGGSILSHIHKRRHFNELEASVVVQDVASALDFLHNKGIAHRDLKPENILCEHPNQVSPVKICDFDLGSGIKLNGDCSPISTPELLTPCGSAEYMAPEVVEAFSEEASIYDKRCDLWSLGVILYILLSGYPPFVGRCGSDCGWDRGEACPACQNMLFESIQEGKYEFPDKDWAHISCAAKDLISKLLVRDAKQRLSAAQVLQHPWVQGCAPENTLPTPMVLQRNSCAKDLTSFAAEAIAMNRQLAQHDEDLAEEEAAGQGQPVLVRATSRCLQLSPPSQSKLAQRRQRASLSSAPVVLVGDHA

Regarding `Nc1nc2c(-c3cc(Br)c(Br)[nH]3)nccc2[nH]1` [Ageladine A, ageladine A, reference compound], the figures for the remaining activity at 1 µM on MKNK2, at PIK3C2G and at ZAP70 were 2.5%, 99% and 81%, respectively. Further, the results for the remaining activity at 10 µM at MKNK2 (10 μM), at PIK3C2G (10 μM) and on ZAP70 (10 μM) were 69%, 80% and 65%, respectively.
For the compound `Nc1nc2c(-c3ccccn3)nccc2[nH]1` [drawing 35, 4-(pyrid-2-yl)-1H-imidazo[4,5-c]pyridin-2-amine], the remaining activity (commonly what remains of the control signal, in per cent) at 1 µM turned out to be 86% at MKNK2, 66% on PIK3C2G and 54% on ZAP70.
Turning to `Nc1nc2c(-c3cnc4ccccc4c3)nccc2[nH]1` [drawing 36, 4-(quinolin-3-yl)-1H-imidazo[4,5-c]pyridin-2-amine], the remaining activity at 1 µM at MKNK2 was determined as 100%; on PIK3C2G, 30%; at ZAP70, 94%.
